In brackets after ≈: the same amount, converted by molar mass.
Experiments:
[1] = tested on: Encapsulated klebsiella pneumoniae R030; assay: Bactericidal activity (MBC), strain 2; format: cell-based; details: 20 min, strain 2, 20 minutes of contact, read-out: Minimum bactericidal concentration (MBC)
Description: (§1) The bactericidal activity of the products according to the invention has been analyzed on various strains by the method described hereafter:
(§2) A bacterial inoculum is placed in contact with different dilutions of the product to be tested, and this for a limited period of time. At the end of contact, an aliquot part of the mixture bacterial suspension/product is deposited on the surface of an agar culture medium containing an agent neutralizing the antibacterial activity of the product. The bactericidal concentration retained is the smallest concentration of the product from which bacteria stop growing. Said concentration is expressed in μg/ml.
(§3) The bacterial strains selected for the analysis are:
2--Encapsulated klebsiella pneumoniae R030;
(§4) The second strain is supported on a Worgel Fergusson medium, the other strains being supported on Tryptic Soy Agar-Difco (TSA) commercialized by Difco.
(§5) After a 24-hour culture period at 37° C., the microbial growth is collected by means of glass beads and of 10 ml of diluent containing 1 g of tryptone and 8.5 g of sodium chloride in 1000 ml of distilled water. The formed suspension is stirred and the percentage of light transmission at 620 nm is measured with a spectrophotometer:
(§6) The bacterial inoculum corresponds to a 1/20th dilution of this bacterial suspension.
(§7) Plates equipped with cupules receive different dilutions of the product to be analyzed. These dilutions are placed in contact with the different bacterial suspensions by means of a multiple-center inoculator. After 20 minutes of contact, aliquot parts are transferred by means of said inoculator on the surface of an agar medium (TSA) in Petri dishes, containing an activity-neutralizing agent, namely 20 g of lubrol W, 25 g of Tween 80 and 2.5 g of sodium thiosulfate in 1000 ml of TSA (Difco). The efficiency of the neutralizing agent is controlled for each product to be analyzed by depositing on the surface of the culture medium an aliquot part of the dilution of the product to be analyzed. After drying, the corresponding inoculum is deposited in the same place. An inoculum control is performed on an agar medium with or without neutralizing agent. Readings are taken after 48 hours of incubation at 37° C.

[2] = tested on: Streptococcus faecalis CNCM 5855; assay: Bactericidal activity (MBC), strain 4; format: cell-based; details: Enterococcus faecalis, CNCM5855, 20 min; strain 4, 20 minutes of contact; read-out: Minimum bactericidal concentration (MBC)
Description: as §1, §2, §3
4--Streptococcus faecalis CNCM 5855;
as §4, §5, §6, §7

guinea-pig skin [3] = assay: Preliminary skin tolerance in the guinea-pig; format: in vivo; details: 0.2 ml on shorn skin once a day, six days out of seven, three weeks
Method: (§8) The tolerance of the products according to the invention was tested in the guinea-pig. The animals are shorn on both sides of the middle line of the back, the shearing being kept up every other day. Batches of 6 animals receive, on the shorn part, 0.2 ml of an aqueous or alcoholic solution of the product according to the invention. When these products are in alcoholic solution, one control batch of animals receives the alcohol on one side.
To study the preliminary skin tolerance, the treatment is applied once a day, six days out of seven, for three weeks. The observations made of the skin are concerned with the presence of erythema, skin eruptions or hyperkeratosis, the intensity of which is graduated according to a preset scale.

[4] = Acute toxicity by oral route in mice; details: mouse, in vivo, per os, male CD1 mice, 14 days observation
Method: Acute toxicity was tested by oral route in mice. This test was carried out with male mice of CD1 strain, obtained from the Charles Reever breeding farm. Each batch was composed of 5 animals of body weight varying between 24 and 30 g kept in the same cage. The animals were kept fasting for 6 hours before the treatment. For every test, the product, placed in suspension in a 10% solution of gum arabic, was administered by forcible feeding with an oesophageal probe. Food was then served to the animals 4 hours after the forcible feeding and the animals were kept under observation for a period of 14 days after the administration. During that period, the death rate is recorded for each batch of animals used in the experiment and, wherever possible, the LD50 is determined by the method of J. T. Litchfield and F. Wilcoxon, J. Pharmacol. 1949, 95, 99-113.
The results are given in mg of substance tested per kg of body weight. They are compiled in Table III below.

[5] = tested on: Pseudomonas aeruginosa CNCM A22; assay: Bactericidal activity (MBC), strain 3; format: cell-based; details: CNCMA22, 20 min, strain 3, 20 minutes of contact, read-out: Minimum bactericidal concentration (MBC)
Description: as §1, §2, §3
3--Pseudomonas aeruginosa CNCM A22;
as §4, §5, §6, §7

guinea-pig = assay: Phototoxic or photoallergic effect on the guinea-pig; format: in vivo
Description: The products according to the invention have also been tested for a phototoxic or photoallergic effect on the guina-pig. The technique used is that of J. Unkovic, G. Mazue and J. Girard, in "Sciences et Techniques de l'Animal de Laboratoire", 1983, 8 (3), 149-160. This is an adaptation of the techniques described by L. C. Harber et al., Arch. Dermatol., 1967, 96, 646-656 and L. J. Vinson et al., Arch. Dermatol., 1966, 17, 123-130.

guinea-pig skin [6] = assay: Skin sensitization test in the guinea-pig; format: in vivo; details: one week treatment after two weeks' rest
Method: as §8, with “side. The skin sensitization test is performed on the same animals after two weeks' rest. The treatment lasts one week, it is identical to the preceding one. The evaluation is based on the same criteria and on the same scale as used to determine the local tolerance.” for “side.”

[7] = tested on: Staphylococcus aureus CNCM 53154; assay: Bactericidal activity (MBC), strain 5; format: cell-based; details: CNCM53154, 20 min, strain 5, 20 minutes of contact, read-out: Minimum bactericidal concentration (MBC)
Description: as §1, §2, §3
5--Staphylococcus aureus CNCM 53154.
as §4, §5, §6, §7

[8] = tested on: Escherichia Coli CNCM 54125; assay: Bactericidal activity (MBC), strain 1; format: cell-based; details: 20 min, strain 1, 20 minutes of contact, read-out: Minimum bactericidal concentration (MBC)
Description: as §1, §2, §3
1--Escherichia Coli CNCM 54125;
as §4, §5, §6, §7

[9] = tested on: Torulopsis glabrata 072023; assay: Antifungal activity (MFC), strain 4; format: cell-based; details: 20 min; yeast strain 4; read-out: Minimum fongicidal concentration (MFC)
Description: as §2, §7
(§9) The antifungal activity of the products according to the invention was also determined with the aforedescribed method.
(§10) The fungal strains selected for the analysis are:
(§11) These strains are supported on a Sabouraud Dextrose agar medium commercialized by Difco; the technique used is the same as that used in the analysis of the antibacterial activity. After 48 hours of culture at 37° C., the microbial growth is collected with glass beads and 5 ml of diluent containing 1 g of tryptone and 8.5 g of sodium chloride in 1000 ml of distilled water; 5 ml of the diluent are then added. […] A 1/100th dilution of this suspension, observed between slides under a microscope 40-lens, should show 10 cells per frame, this corresponding to 1,000,000 yeasts per ml.

[10] = tested on: Candida albicans CNCM 1180; assay: Antifungal activity (MFC), strain 1; format: cell-based; details: 20 min; yeast strain 1; read-out: Minimum fongicidal concentration (MFC)
Description: as §2, §7, §9, §10
1--Candida albicans CNCM 1180;
as §11

Candida tropicalis 3834 = assay: Antifungal activity (MFC), strain 2; format: cell-based; details: 20 min; yeast strain 2; read-out: Minimum fongicidal concentration (MFC)
Description: as §2, §7, §9, §10
2--Candida tropicalis 3834;
as §11

Candida parakruzei 3918 = assay: Antifungal activity (MFC), strain 3; format: cell-based; details: 20 min; yeast strain 3; read-out: Minimum fongicidal concentration (MFC)
Description: as §2, §7, §9, §10
3--Candida parakruzei 3918;
as §11

| Compound | MBC [1] [µg/mL] | MBC [2] [µg/mL] | products found to have a bad tolerance (guinea-pig skin [3]) | LD50 at 336 h [4] [mg/kg] | MBC [5] [µg/mL] | products found to have a phototoxic or photoallergic effect (guinea-pig) | products found to have a sensibilizing effect (guinea-pig skin [6]) | MBC [7] [µg/mL] | MBC [8] [µg/mL] | MFC [9] [µg/mL] | MFC [10] [µg/mL] | MFC (Candida tropicalis 3834) [µg/mL] | MFC (Candida parakruzei 3918) [µg/mL] |
| --- | --- | --- | --- | --- | --- | --- | --- | --- | --- | --- | --- | --- | --- |
| CN(C)CCCCCCC(CO)c1cccc2ccccc12 (stereo not shown) [SR 43 727 A] | 50 (≈ 167 µM) | 20 (≈ 66.8 µM) | None | 580 | 50 (≈ 167 µM) | None | None | 200 (≈ 668 µM) | 20 (≈ 66.8 µM) | – | – | – | – |
| OCC(CCN1CCCCCC1)c1ccc2ccccc2c1 (stereo not shown) [SR 43 270 A] | 1000 (≈ 3360 µM) | 2000 (≈ 6720 µM) | None | – | 1000 (≈ 3360 µM) | None | None | 1000 (≈ 3360 µM) | 1000 (≈ 3360 µM) | 5000 (≈ 16800 µM) | 500 (≈ 1680 µM) | 1000 (≈ 3360 µM) | 1000 (≈ 3360 µM) |
| OCC(CCN1CCC(Cc2ccccc2)CC1)c1cccc2ccccc12 (stereo not shown) [SR 43 383 A] | 100 (≈ 268 µM) | 100 (≈ 268 µM) | None | 1180 | 100 (≈ 268 µM) | None | None | 100 (≈ 268 µM) | 100 (≈ 268 µM) | 500 (≈ 1340 µM) | 100 (≈ 268 µM) | 100 (≈ 268 µM) | 100 (≈ 268 µM) |
| Cl.OCC(CCCCCCN1CCCCC1)c1cccc2ccccc12 (stereo not shown) [SR 43 157 A, 8-piperidino-2-(1-naphthyl)-octanol hydrochloride] | 200 | 200 | None | – | 100 | None | None | 200 | 200 | 1000 | 300 | 300 | 300 |

— patent US4820717A, “Antimicrobial aromatic derivatives substituted by an (omega amino) alkanol group and compositions containing them” (priority 1985, dated 1989)
